Measurements from patent US11053246B2, “Substituted tricyclic compounds as FGFR inhibitors” (Incyte Corporation, priority 2012, dated 2021).

How the values were obtained:
Assay type in all cases: biochemical
[1] = target: FGFR1 (Homo sapiens (Human), UniProt P11362); test: FGFR Enzymatic Assay (FRET peptide phosphorylation), FGFR1; details: FGFR1 enzyme 0.02 nM, ATP 210 μM, 25° C., 1 hr
[2] = target: FGFR3 (Homo sapiens (Human), UniProt P22607); test: FGFR Enzymatic Assay (FRET peptide phosphorylation), FGFR3; details: FGFR3 enzyme (Millipore), ATP 140 μM, 25° C., 1 hr
Procedure: (§1) The inhibitor potency of the exemplified compounds was measured in an enzyme assay that measures peptide phosphorylation using FRET measurements to detect product formation. Inhibitors were serially diluted in DMSO and a volume of 0.5 μL was transferred to the wells of a 384-well plate. For FGFR3, a 10 μL volume of FGFR3 enzyme (Millipore) diluted in assay buffer (50 mM HEPES, 10 mM MgCl2, 1 mM EGTA, 0.01% Tween-20, 5 mM DTT, pH 7.5) was added to the plate and pre-incubated for 5-10 minutes. Appropriate controls (enzyme blank and enzyme with no inhibitor) were included on the plate. […] The plate was incubated at 25° C. for 1 hr. […] The plate was allowed to equilibrate for ˜1 hr before scanning the wells on a PheraStar plate reader (BMG Labtech).
(§2) GraphPad prism3 was used to analyze the data. The IC50 values were derived by fitting the data to the equation for a sigmoidal dose-response with a variable slope. Y=Bottom+(Top−Bottom)/(1+10^((Log IC50−X)*HillSlope)) where X is the logarithm of concentration and Y is the response.

[3] = target: FGFR2 (Homo sapiens (Human), UniProt P21802); test: FGFR Enzymatic Assay (FRET peptide phosphorylation), FGFR2; details: FGFR2 enzyme 0.01 nM, ATP 100 μM, 25° C., 1 hr
Procedure: as §1
The enzymes were purchased from Millipore or Invitrogen.
as §2

Measured: IC50

Sequence of FGFR3 (P22607 23-806): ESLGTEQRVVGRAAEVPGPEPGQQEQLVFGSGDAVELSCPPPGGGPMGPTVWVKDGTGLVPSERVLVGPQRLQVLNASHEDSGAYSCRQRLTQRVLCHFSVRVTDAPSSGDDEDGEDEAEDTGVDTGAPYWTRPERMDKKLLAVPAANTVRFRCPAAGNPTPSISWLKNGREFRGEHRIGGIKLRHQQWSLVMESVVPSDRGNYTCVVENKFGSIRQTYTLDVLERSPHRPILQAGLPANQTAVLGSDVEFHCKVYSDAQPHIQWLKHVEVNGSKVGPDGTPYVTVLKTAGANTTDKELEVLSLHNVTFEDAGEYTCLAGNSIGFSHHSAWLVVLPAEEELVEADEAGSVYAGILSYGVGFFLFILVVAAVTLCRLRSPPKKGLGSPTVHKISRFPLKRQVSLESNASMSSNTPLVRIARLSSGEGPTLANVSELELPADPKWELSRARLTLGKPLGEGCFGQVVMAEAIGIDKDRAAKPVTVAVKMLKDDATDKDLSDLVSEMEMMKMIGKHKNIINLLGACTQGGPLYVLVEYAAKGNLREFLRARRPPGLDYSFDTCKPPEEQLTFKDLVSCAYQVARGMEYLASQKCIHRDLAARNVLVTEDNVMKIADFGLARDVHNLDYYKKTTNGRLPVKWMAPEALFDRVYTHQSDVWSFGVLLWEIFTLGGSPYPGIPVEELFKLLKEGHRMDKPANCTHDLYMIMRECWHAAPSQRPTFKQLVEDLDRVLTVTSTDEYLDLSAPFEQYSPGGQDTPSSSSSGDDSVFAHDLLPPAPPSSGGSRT
Sequence of FGFR2 (P21802 22-821): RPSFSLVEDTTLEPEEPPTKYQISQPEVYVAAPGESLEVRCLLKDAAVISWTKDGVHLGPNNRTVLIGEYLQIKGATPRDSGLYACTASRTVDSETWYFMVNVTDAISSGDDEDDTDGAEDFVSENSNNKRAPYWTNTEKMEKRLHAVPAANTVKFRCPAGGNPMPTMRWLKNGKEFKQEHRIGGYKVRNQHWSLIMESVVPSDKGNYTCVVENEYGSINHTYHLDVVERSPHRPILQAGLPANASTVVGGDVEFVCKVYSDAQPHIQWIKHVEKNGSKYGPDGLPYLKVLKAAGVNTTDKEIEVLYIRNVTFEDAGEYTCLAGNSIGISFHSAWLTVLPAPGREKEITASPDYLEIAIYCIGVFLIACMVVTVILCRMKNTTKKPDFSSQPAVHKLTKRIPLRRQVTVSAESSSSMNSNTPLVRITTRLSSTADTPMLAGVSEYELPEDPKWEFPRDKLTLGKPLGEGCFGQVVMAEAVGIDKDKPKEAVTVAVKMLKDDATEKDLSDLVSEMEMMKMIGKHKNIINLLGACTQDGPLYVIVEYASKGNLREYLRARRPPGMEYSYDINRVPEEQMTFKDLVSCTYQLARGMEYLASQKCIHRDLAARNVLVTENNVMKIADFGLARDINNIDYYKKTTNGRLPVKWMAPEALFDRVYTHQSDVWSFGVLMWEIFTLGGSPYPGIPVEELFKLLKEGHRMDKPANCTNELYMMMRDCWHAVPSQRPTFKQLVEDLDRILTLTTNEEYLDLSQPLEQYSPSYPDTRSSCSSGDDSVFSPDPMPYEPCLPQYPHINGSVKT
Sequence of FGFR1 (P11362 22-822): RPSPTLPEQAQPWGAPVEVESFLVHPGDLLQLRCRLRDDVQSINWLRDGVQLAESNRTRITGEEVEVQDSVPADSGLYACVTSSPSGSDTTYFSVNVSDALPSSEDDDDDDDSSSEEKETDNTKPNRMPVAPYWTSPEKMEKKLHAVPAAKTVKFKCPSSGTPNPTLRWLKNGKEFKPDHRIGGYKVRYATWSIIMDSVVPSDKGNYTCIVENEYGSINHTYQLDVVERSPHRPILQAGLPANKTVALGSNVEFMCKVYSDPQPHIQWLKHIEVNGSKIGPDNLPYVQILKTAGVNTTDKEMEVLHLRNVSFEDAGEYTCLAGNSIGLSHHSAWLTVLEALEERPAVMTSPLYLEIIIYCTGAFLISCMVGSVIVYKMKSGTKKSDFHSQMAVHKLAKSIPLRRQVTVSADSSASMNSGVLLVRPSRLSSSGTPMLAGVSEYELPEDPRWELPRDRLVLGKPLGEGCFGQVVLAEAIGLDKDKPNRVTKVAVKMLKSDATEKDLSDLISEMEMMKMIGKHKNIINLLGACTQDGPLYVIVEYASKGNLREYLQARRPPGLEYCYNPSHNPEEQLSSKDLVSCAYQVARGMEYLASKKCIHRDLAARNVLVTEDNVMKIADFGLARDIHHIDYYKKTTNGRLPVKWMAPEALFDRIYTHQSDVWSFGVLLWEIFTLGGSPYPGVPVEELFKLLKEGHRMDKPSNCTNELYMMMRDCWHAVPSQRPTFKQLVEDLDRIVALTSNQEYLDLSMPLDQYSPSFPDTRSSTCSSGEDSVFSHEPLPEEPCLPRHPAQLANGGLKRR

CCN1C(=O)N(c2c(F)c(OC)cc(OC)c2Cl)Cc2cnc3c(c21)CC(=O)N3 [Example 63, 3-(2-chloro-6-fluoro-3,5-dimethoxyphenyl)-1-ethyl-3,4,7,9-tetrahydro-1H-pyrrolo[3′,2′:5,6]pyrido[4,3-d]pyrimidine-2,8-dione]
< 100 nM: all assays above
